# ChEMBL document CHEMBL4393717, “Development of novel human lactate dehydrogenase A inhibitors: High-throughput screening, synthesis, and biological evaluations” (Eur J Med Chem, 2019)
# Calls of active or inactive are those of the source. No cut-off for these calls is given here.
# Experiments:
# [1] = target: T1, L-lactate dehydrogenase A chain (Homo sapiens, UniProt P00338); assay: Inhibition of recombinant human full-length N-terminal His-tagged LDHA (1 to 332 residues) expressed in Escherichia coli using sodium pyruvate as substrate incubated for 10 mins
# MIA PaCa-2 [2] = assay: Antiproliferative activity against human MIAPaCa2 cells assessed as reduction in cell viability incubated for 72 hrs by MTT assay; format: functional, cell-based; conditions: MIA PaCa-2, 72 h
# A549 = assay: Antiproliferative activity against human A549 cells assessed as reduction in cell viability at incubated for 72 hrs by MTT assay; format: functional, cell-based; conditions: A549, 72 h
# MIA PaCa-2 [3] = assay: Inhibition of colony formation in human MIAPaCa2 cells at 1 uM treated for 3 days and supplemented with fresh medium with out compound every 3 days measured after 15 days by crystal violet staining based assay; format: functional
# MIA PaCa-2 [4] = assay: Inhibition of colony formation in human MIAPaCa2 cells at 0.5 uM treated for 3 days and supplemented with fresh medium with out compound every 3 days measured after 15 days by crystal violet staining based assay; format: functional, cell-based
# MIA PaCa-2 [5] = assay: Induction of apoptosis in human MIAPaCa2 cells assessed as viable cells at 1 uM incubated for 12 hrs by annexin V and propidium iodide staining based flow cytometry analysis (reference value: 94.85 %); format: functional; conditions: MIA PaCa-2, 12 h, read-out: Activity
# MIA PaCa-2 [6] = assay: Induction of apoptosis in human MIAPaCa2 cells assessed as early apoptotic cells at 1 uM incubated for 12 hrs by annexin V and propidium iodide staining based flow cytometry analysis (reference value: 0.40 %); format: functional
# MIA PaCa-2 [7] = assay: Induction of apoptosis in human MIAPaCa2 cells assessed as late apoptotic cells at 1 uM incubated for 12 hrs by annexin V and propidium iodide staining based flow cytometry analysis (reference value: 3.21 %); format: functional
# MIA PaCa-2 [8] = assay: Induction of apoptosis in human MIAPaCa2 cells assessed as necrotic cells at 1 uM incubated for 12 hrs by annexin V and propidium iodide staining based flow cytometry analysis (reference value: 1.54 %); format: functional
# MIA PaCa-2 [9] = assay: Induction of apoptosis in human MIAPaCa2 cells assessed as viable cells at 5 uM incubated for 12 hrs by annexin V and propidium iodide staining based flow cytometry analysis (reference value: 94.85 %); format: functional; conditions: MIA PaCa-2, 12 h, read-out: Activity
# MIA PaCa-2 [10] = assay: Induction of apoptosis in human MIAPaCa2 cells assessed as early apoptotic cells at 5 uM incubated for 12 hrs by annexin V and propidium iodide staining based flow cytometry analysis (reference value: 0.40 %); format: functional
# MIA PaCa-2 [11] = assay: Induction of apoptosis in human MIAPaCa2 cells assessed as late apoptotic cells at 5 uM incubated for 12 hrs by annexin V and propidium iodide staining based flow cytometry analysis (reference value: 3.21 %); format: functional
# MIA PaCa-2 [12] = assay: Induction of apoptosis in human MIAPaCa2 cells assessed as necrotic cells at 5 uM incubated for 12 hrs by annexin V and propidium iodide staining based flow cytometry analysis (reference value: 1.54 %); format: functional
# MIA PaCa-2 [13] = assay: Induction of apoptosis in human MIAPaCa2 cells assessed as viable cells at 10 uM incubated for 12 hrs by annexin V and propidium iodide staining based flow cytometry analysis (reference value: 94.85 %); format: functional; conditions: MIA PaCa-2, 12 h, read-out: Activity
# MIA PaCa-2 [14] = assay: Induction of apoptosis in human MIAPaCa2 cells assessed as early apoptotic cells at 10 uM incubated for 12 hrs by annexin V and propidium iodide staining based flow cytometry analysis (reference value: 0.40 %); format: functional
# MIA PaCa-2 [15] = assay: Induction of apoptosis in human MIAPaCa2 cells assessed as late apoptotic cells at 10 uM incubated for 12 hrs by annexin V and propidium iodide staining based flow cytometry analysis (reference value: 3.21 %); format: functional
# MIA PaCa-2 [16] = assay: Induction of apoptosis in human MIAPaCa2 cells assessed as necrotic cells at 10 uM incubated for 12 hrs by annexin V and propidium iodide staining based flow cytometry analysis (reference value: 1.54 %); format: functional
# MIA PaCa-2 [17] = assay: Induction of apoptosis in human MIAPaCa2 cells incubated for 12 hrs by Annexin V-FITC/propidium iodide staining based flow cytometry; format: functional, cell-based
# MIA PaCa-2 [18] = assay: Cell cycle arrest in human MIAPaCa2 cells assessed as accumulation at G1 phase at 1 uM incubated for 24 hrs by propidium iodide staining based flow cytometry (reference value: 56.01%); format: functional
# MIA PaCa-2 [19] = assay: Cell cycle arrest in human MIAPaCa2 cells assessed as accumulation at S phase at 1 uM incubated for 24 hrs by propidium iodide staining based flow cytometry (reference value: 12.99%); format: functional
# MIA PaCa-2 [20] = assay: Cell cycle arrest in human MIAPaCa2 cells assessed as accumulation at G2 phase at 1 uM incubated for 24 hrs by propidium iodide staining based flow cytometry (reference value: 31.00%); format: functional
# MIA PaCa-2 [21] = assay: Cell cycle arrest in human MIAPaCa2 cells assessed as accumulation at G1 phase at 5 uM incubated for 24 hrs by propidium iodide staining based flow cytometry (reference value: 56.01%); format: functional
# MIA PaCa-2 [22] = assay: Cell cycle arrest in human MIAPaCa2 cells assessed as accumulation at S phase at 5 uM incubated for 24 hrs by propidium iodide staining based flow cytometry (reference value: 12.99%); format: functional
# MIA PaCa-2 [23] = assay: Cell cycle arrest in human MIAPaCa2 cells assessed as accumulation at G2 phase at 5 uM incubated for 24 hrs by propidium iodide staining based flow cytometry (reference value: 31.00%); format: functional
# MIA PaCa-2 [24] = assay: Cell cycle arrest in human MIAPaCa2 cells assessed as accumulation at G1 phase at 10 uM incubated for 24 hrs by propidium iodide staining based flow cytometry (reference value: 56.01%); format: functional
# MIA PaCa-2 [25] = assay: Cell cycle arrest in human MIAPaCa2 cells assessed as accumulation at S phase at 10 uM incubated for 24 hrs by propidium iodide staining based flow cytometry (reference value: 12.99%); format: functional
# MIA PaCa-2 [26] = assay: Cell cycle arrest in human MIAPaCa2 cells assessed as accumulation at G2 phase at 10 uM incubated for 24 hrs by propidium iodide staining based flow cytometry (reference value: 31.00%); format: functional
# MIA PaCa-2 [27] = assay: Cell cycle arrest in human MIAPaCa2 cells assessed as increase in accumulation at G2 phase incubated for 24 hrs by propidium iodide staining based flow cytometry; format: functional
# [28] = target: T1, L-lactate dehydrogenase A chain; assay: Inhibition of LDHA in human MIAPaCa2 cells assessed as switch of pyruvate metabolism from lactate production to oxidative phosphorylation by measuring reduction in lactate formation at 1 to 10 uM incubated for 4 hrs; format: cell-based
# [29] = target: T1, L-lactate dehydrogenase A chain; assay: Inhibition of LDHA in human MIAPaCa2 cells assessed as switch of pyruvate metabolism from lactate production to oxidative phosphorylation by measuring decrease in extracellular acidification rate at 1 to 10 uM incubated for 4 hrs; format: cell-based
# [30] = target: T1, L-lactate dehydrogenase A chain; assay: Inhibition of LDHA in human MIAPaCa2 cells assessed as switch of pyruvate metabolism from lactate production to oxidative phosphorylation by measuring increase in oxygen consumption rate at 1 to 10 uM incubated for 4 hrs; format: cell-based
# MIA PaCa-2 [31] = assay: Antitumor activity against human MIAPaCa2 cells xenografted in nude mouse assessed as reduction in tumor growth at 10 mg/kg administered once daily for 21 days measured twice a week; format: functional, organism-based
# MIA PaCa-2 [32] = assay: Antitumor activity against human MIAPaCa2 cells xenografted in mouse assessed as reduction in tumor weight at 10 mg/kg administered once daily for 21 days measured twice a week; format: functional, organism-based
# [33] = Toxicity in nude mouse xenografted with human MIAPaCa2 cells assessed as reduction in body weight at 10 mg/kg administered once daily for 21 days measured twice a week; format: organism-based; conditions: in vivo, 504 h
# MIA PaCa-2 [34] = assay: Inhibition of colony formation in human MIAPaCa2 cells treated for 3 days and supplemented with fresh medium with out compound every 3 days measured after 15 days by crystal violet staining based assay; format: functional, cell-based
smiles,measurement,setting,value
O=C(c1ccco1)N1CCN(Cc2cc(=O)c(OCc3ccccc3F)co2)CC1,EC50,[1],90 nM
same,IC50,MIA PaCa-2 [2],2100 nM
same,IC50,A549,7800 nM
same,inhibition at 1 µM,MIA PaCa-2 [3],100%
same,inhibition,MIA PaCa-2 [4],Active
same,viability at 1 µM,MIA PaCa-2 [5],89.8%
same,Activity,MIA PaCa-2 [6],1.14%
same,Activity,MIA PaCa-2 [7],5.79%
same,Activity,MIA PaCa-2 [8],3.23%
same,viability at 5 µM,MIA PaCa-2 [9],66.6%
same,Activity,MIA PaCa-2 [10],3.47%
same,Activity,MIA PaCa-2 [11],19.86%
same,Activity,MIA PaCa-2 [12],10.1%
same,viability at 10 µM,MIA PaCa-2 [13],55.1%
same,Activity,MIA PaCa-2 [14],3.79%
same,Activity,MIA PaCa-2 [15],27.68%
same,Activity,MIA PaCa-2 [16],13.38%
same,Activity,MIA PaCa-2 [17],Dose-dependent effect
same,Activity,MIA PaCa-2 [18],49.19%
same,Activity,MIA PaCa-2 [19],12.29%
same,Activity,MIA PaCa-2 [20],38.52%
same,Activity,MIA PaCa-2 [21],44.51%
same,Activity,MIA PaCa-2 [22],13.37%
same,Activity,MIA PaCa-2 [23],42.12%
same,Activity,MIA PaCa-2 [24],36.21%
same,Activity,MIA PaCa-2 [25],3.8%
same,Activity,MIA PaCa-2 [26],59.99%
same,Activity,MIA PaCa-2 [27],Dose-dependent effect
same,inhibition,[28],Active
same,inhibition,[29],Active
same,inhibition,[30],Active
same,Activity,MIA PaCa-2 [31],Active
same,Activity,MIA PaCa-2 [32],Active
same,Activity,[33],Non-Toxic
same,inhibition,MIA PaCa-2 [34],Dose-dependent effect
